According to patent publication US20240189309A1, “TYK2 INHIBITORS AND USES THEREOF” (Sudo Biosciences Limited, priority 2021, published 2024):

Legend:
[1] = molecular target: T1, TYK2 Pseudokinase (JH2) (Homo sapiens, UniProt P29597); assay: HEK-Blue IFNα/β reporter assay (SEAP) for profiling TYK2 pseudokinase (JH2) inhibition; assay type: cell-based; conditions: HEK-Blue IFNα/β cells, 1 ng/mL human recombinant IFNα, read-out: IFNα (TYK2 inhibitory activity, IC50)
Experimental: (§1) Example B-1: HEK-Blue™ IL-23 and IFNα/β Reporter Assays for Profiling TYK2 Pseudokinase (JH2) Inhibition
(§2) HEK-Blue™ IL-23 and IFNα/β cells with a stably-integrated cytokine receptor and STAT3 or STAT1 express STAT-inducible secreted embryonic alkaline phosphatase (SEAP) reporter gene upon cytokine stimulation. These cells are plated in DMEM (Gibco) containing 10% heat-inactivated FBS (Gibco) and 100 U/mL PenStrep (Gibco) at 37° C. under 5% CO2 conditions for 20-22 hours. The cells are then pretreated with serially diluted test compounds for 60 min prior to stimulation with either 10 ng/mL human recombinant IL-23 (Miltenyl Biotech) or 1 ng/mL human recombinant IFNα (InvivoGen) for 22-24 hours for IL-23 or 16-18 h for IFNα. SEAP induction is measured using the QUANTI Blue™ Solution (InvivoGen) according to the manufacturer's instructions.

[2] = molecular target: T2, TYK2-JH1 (Homo sapiens, UniProt P29597); assay: HTRF-based selectivity assay, TYK2 catalytic domain; assay type: biochemical; conditions: kinase domain (JH1), ATP 20 μM
T2 construct: recombinant purified His or GST-tagged catalytic domain for each enzyme; made in house
T2 sequence (P29597 897-1176 limits assumed): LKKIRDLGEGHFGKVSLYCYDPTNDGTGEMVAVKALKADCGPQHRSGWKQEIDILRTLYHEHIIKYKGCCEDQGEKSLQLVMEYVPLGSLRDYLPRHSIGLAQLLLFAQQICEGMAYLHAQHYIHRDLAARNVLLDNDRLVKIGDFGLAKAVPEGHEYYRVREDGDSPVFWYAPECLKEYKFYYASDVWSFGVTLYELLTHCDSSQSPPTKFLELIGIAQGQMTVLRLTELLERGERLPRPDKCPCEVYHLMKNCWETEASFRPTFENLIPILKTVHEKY
Experimental: (§3) Example B-2: HTRF-Based Selectivity Assay
(§4) The ability of compounds to inhibit the activity of JAK1, JAK2, JAK3 and TYK2 is measured using a recombinant purified His or GST-tagged catalytic domain for each enzyme (JAK1, JAK2 and TYK2 are generated in-house; JAK3 was purchased from Carna biosciences, Cat #08-046) in an HTRF format biochemical assay. The reactions employs a commercial peptide substrate from Cisbio (Cat #62TK0PEC). The basic assay protocol is as follows: first, 2.5 μL of diluted compounds (4×) in DMSO are dispensed into a 384-well Optiplate. Next, 2.5 μL of enzyme (final concentrations for enzymes are: TYK2—700 ng/mL, JAK1—80.6 ng/mL, JAK2—2.1 ng/mL and JAK3—171.8 ng/mL) is added and incubated at RT for 5-20 min. Finally, 5 μl of mixture of 2×ATP [Final concentration 20 μM for TYK2, 21.43 μM for JAK1, 14.7 μM for JAK2 and 2.12 μM for JAK3]+2× Substrate [Final concentration 217 nM for TYK2, 454.7 nM for JAK1, 200 nM for JAK2 and 257.4 nM for JAK3] is added to 384 well Optiplate. Composition of Kinase assay buffer used in the assay is as follows: HEPES 50 mM, EGTA 1 mM, MgCl2 10 mM, DTT 2 mM, Tween-20 0.01% and water. Then the plates are shaken and then incubated at 26.5° C. for 60 min.

[3] = molecular target: T3, JAK1-JH1 (Homo sapiens, UniProt P23458); assay: HTRF-based selectivity assay, JAK1 catalytic domain; assay type: biochemical; conditions: kinase domain (JH1), ATP 21.43 μM
T3 construct: recombinant purified His or GST-tagged catalytic domain for each enzyme; made in house
T3 sequence (P23458 875-1153 limits assumed): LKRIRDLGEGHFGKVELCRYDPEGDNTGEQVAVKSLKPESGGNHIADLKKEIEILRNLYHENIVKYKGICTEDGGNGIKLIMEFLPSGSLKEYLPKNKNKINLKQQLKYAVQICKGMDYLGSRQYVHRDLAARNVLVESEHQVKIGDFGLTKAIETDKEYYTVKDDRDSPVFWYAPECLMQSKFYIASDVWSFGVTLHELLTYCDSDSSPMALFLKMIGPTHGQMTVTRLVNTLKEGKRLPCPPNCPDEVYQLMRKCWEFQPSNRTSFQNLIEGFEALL
Experimental: as §3, §4

[4] = molecular target: T4, JAK2-JH1 (Homo sapiens, UniProt O60674); assay: HTRF-based selectivity assay, JAK2 catalytic domain; assay type: biochemical; conditions: kinase domain (JH1), ATP 14.7 μM
T4 construct: recombinant purified His or GST-tagged catalytic domain for each enzyme; made in house
T4 sequence (O60674 849-1124 limits assumed): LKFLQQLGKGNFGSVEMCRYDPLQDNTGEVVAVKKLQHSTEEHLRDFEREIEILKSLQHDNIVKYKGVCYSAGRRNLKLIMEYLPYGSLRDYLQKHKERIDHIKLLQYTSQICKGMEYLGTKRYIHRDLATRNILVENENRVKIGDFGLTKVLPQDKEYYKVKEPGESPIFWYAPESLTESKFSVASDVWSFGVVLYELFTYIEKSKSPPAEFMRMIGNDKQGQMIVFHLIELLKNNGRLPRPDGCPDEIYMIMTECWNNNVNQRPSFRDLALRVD
Experimental: as §3, §4

[5] = molecular target: T5, JAK3-JH1 (Homo sapiens, UniProt P52333); assay: HTRF-based selectivity assay, JAK3 catalytic domain; assay type: biochemical; conditions: kinase domain (JH1), ATP 2.12 μM
T5 construct: recombinant purified His or GST-tagged catalytic domain for each enzyme; purchased Carna biosciences 08-046
T5 sequence (P52333 822-1111 limits assumed): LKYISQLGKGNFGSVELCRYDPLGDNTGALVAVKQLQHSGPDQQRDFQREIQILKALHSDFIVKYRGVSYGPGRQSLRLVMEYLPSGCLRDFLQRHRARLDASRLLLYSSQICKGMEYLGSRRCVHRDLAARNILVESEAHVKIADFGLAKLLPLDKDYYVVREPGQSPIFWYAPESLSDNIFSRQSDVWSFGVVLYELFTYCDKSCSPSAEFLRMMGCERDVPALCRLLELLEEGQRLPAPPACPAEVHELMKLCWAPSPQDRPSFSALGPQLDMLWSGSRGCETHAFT
Experimental: as §3, §4

[6] = system: HEK-Blue™ IL-2 reporter cells; assay: HEK-Blue IL-2 reporter assay (SEAP) for determining selectivity; assay type: cell-based; conditions: HEK-Blue IL-2 cells, 4 ng/mL human recombinant IL-2, SEAP reporter
Experimental: (§5) Example B-3: HEK-Blue™ IL-2 and IFNγ Reporter Assays for Determining Selectivity
(§6) HEK-Blue™ IL-2 and IFNγ reporter cells with a stably-integrated cytokine receptor and STAT5 or STAT1 express STAT-inducible secreted embryonic alkaline phosphatase (SEAP) reporter gene upon cytokine stimulation. These cells were plated in DMEM (Gibco) containing 10% heat-inactivated FBS (Gibco) and 100 U/mL PenStrep (Gibco) at 37° C. under 5% CO2 conditions for 20-22 hours. The cells were then pre-treated with serially diluted test compounds for 60 min prior to stimulation with either 4 ng/mL human recombinant IL-2 (Miltenyl Biotech) or 50 ng/mL human recombinant IFNγ (InvivoGen) for 24 hours. SEAP induction was measured using the QUANTI-Blue™ Solution (InvivoGen) according to the manufacturer's instructions.

[7] = molecular target: T1, TYK2 Pseudokinase (JH2); assay: HEK-Blue IL-23 reporter assay (SEAP) for profiling TYK2 pseudokinase (JH2) inhibition; assay type: cell-based; design: HEK-Blue™ IL-23 and IFNα/β cells with a stably-integrated cytokine receptor and STAT3 or STAT1; endogenous in cells; host or cells: HEK-Blue IL-23 and HEK-Blue IFNα/β cells; conditions: HEK-Blue IL-23 cells, 10 ng/mL human recombinant IL-23, SEAP reporter; read-out: IL23 (TYK2 inhibitory activity, IC50)
Experimental: as §1, §2

[8] = system: HEK-Blue™ IFNγ reporter cells; assay: HEK-Blue IFNγ reporter assay (SEAP) for determining selectivity; assay type: cell-based; conditions: 50 ng/mL human recombinant IFNγ, read-out: IFN-γ (SEAP selectivity, IC50)
Experimental: as §5, §6

T1 sequence (P29597 whole entry): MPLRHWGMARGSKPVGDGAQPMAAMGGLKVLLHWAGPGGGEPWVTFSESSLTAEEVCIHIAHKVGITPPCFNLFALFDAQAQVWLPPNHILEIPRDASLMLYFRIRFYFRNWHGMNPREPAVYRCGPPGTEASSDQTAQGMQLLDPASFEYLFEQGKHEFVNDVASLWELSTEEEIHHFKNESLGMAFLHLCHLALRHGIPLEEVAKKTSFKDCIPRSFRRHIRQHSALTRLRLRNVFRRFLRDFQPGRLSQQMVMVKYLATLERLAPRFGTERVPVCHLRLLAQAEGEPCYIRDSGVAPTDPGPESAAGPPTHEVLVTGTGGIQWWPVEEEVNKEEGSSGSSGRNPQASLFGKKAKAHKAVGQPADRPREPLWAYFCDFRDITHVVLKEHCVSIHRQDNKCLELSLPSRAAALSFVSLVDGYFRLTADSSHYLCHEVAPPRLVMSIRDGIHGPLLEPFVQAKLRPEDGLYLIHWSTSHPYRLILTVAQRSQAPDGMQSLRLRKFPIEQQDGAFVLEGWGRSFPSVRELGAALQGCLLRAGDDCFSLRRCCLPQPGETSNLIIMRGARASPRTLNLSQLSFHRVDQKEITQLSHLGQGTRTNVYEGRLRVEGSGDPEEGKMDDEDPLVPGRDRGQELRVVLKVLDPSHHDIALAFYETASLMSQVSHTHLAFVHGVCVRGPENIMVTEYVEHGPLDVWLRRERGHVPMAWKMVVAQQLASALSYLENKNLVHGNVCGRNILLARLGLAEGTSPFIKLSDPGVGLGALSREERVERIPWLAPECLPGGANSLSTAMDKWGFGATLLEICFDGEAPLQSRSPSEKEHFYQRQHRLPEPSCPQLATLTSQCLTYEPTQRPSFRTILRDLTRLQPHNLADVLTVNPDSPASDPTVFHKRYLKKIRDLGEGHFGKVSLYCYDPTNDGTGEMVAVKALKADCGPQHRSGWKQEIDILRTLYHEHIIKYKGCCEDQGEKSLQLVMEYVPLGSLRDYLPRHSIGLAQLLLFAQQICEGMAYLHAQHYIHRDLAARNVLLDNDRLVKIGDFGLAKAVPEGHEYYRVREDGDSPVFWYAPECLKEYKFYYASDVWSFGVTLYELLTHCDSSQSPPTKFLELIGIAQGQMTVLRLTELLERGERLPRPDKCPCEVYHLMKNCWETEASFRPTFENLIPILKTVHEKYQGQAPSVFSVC

SMILES	IC50 [1] [nM]	IC50 [2] [nM]	IC50 [3] [nM]	IC50 [4] [nM]	IC50 [5] [nM]	IC50 [7] [nM]	IC50 [6] [nM]	IC50 [8] [nM]
[2H]C([2H])([2H])NC(=O)c1nnc(NC(=O)C2CC2)cc1Nc1cc(F)cc2c1N(C)Cc1nn(C)c(=O)n1-2 [Compound 18, 6-(cyclopropanecarboxamido)-4-((8-fluoro-2,5-dimethyl-1-oxo-1,2,4,5-tetrahydro-[1,2,4]triazolo[4,3-a]quinoxalin-6-yl)amino)-N-(methyl-d3)pyridazine-3-carboxamide]	30 to 300	> 1000	> 1000	> 1000	> 1000	< 30	> 1000	–
[2H]C([2H])([2H])NC(=O)c1cnc(NC(=O)C2CC2)cc1Nc1cc(F)cc2c1N(C)Cc1nn(C)c(=O)n1-2 [Compound 16, 6-(cyclopropanecarboxamido)-4-((8-fluoro-2,5-dimethyl-1-oxo-1,2,4,5-tetrahydro-[1,2,4]triazolo[4,3-a]quinoxalin-6-yl)amino)-N-(methyl-d3)nicotinamide]	< 30	> 1000	> 1000	> 1000	> 1000	< 30	> 1000	> 1000
[2H]C([2H])([2H])NC(=O)c1nnc(NC(=O)C2CC2)cc1Nc1cccc2c1N(C)Cc1nn(C)c(=O)n1-2 [Compound 17, 6-(cyclopropanecarboxamido)-4-((2,5-dimethyl-1-oxo-1,2,4,5-tetrahydro-[1,2,4]triazolo[4,3-a]quinoxalin-6-yl)amino)-N-(methyl-d3)pyridazine-3-carboxamide]	< 30	> 1000	> 1000	> 1000	> 1000	< 30	> 1000	30 to 300
[2H]C([2H])([2H])NC(=O)c1nnc(NC(=O)C2CC2)cc1Nc1nccc2c1N(C)Cc1nn(C)c(=O)n1-2 [Compound 20, 6-(cyclopropanecarboxamido)-4-((2,5-dimethyl-1-oxo-1,2,4,5-tetrahydropyrido[3,4-e][1,2,4]triazolo[4,3-a]pyrazin-6-yl)amino)-N-(methyl-d3)pyridazine-3-carboxamide]	< 30	> 1000	> 1000	> 1000	> 1000	< 30	> 1000	–
CNC(=O)c1nnc(Nc2ccc(F)cn2)cc1Nc1cccc2c1OCc1conc1-2 [Compound 2, 4-((4H-chromeno[4,3-c]isoxazol-6-yl)amino)-6-((5-fluoropyridin-2-yl)amino)-N-methylpyridazine-3-carboxamide]	> 1000	> 1000	> 1000	> 1000	> 1000	< 30	> 1000	300 to 1000

The next lines start with results.

IC50 [1] [nM]	IC50 [2] [nM]	IC50 [3] [nM]	IC50 [4] [nM]	IC50 [5] [nM]	IC50 [7] [nM]	SMILES	IC50 [6] [nM]	IC50 [8] [nM]
30 to 300	> 1000	> 1000	> 1000	> 1000	< 30	[2H]C([2H])([2H])NC(=O)c1cnc(NC(=O)C2CC2)cc1Nc1cccc2c1N(C)Cc1nnnn1-2 [Compound 11, 6-(cyclopropanecarboxamido)-N-(methyl-d3)-4-((5-methyl-4,5-dihydrotetrazolo[1,5-a]quinoxalin-6-yl)amino)nicotinamide]	> 1000	> 1000
< 30	> 1000	> 1000	> 1000	> 1000	< 30	[2H]C([2H])([2H])NC(=O)c1cnc(Nc2ccc(F)cn2)cc1Nc1cccc2c1N(C)Cc1nn(C)c(=O)n1-2 [Compound 9, 4-((2,5-dimethyl-1-oxo-1,2,4,5-tetrahydro-[1,2,4]triazolo[4,3-a]quinoxalin-6-yl)amino)-6-((5-fluoropyridin-2-yl)amino)-N-(methyl-d3)nicotinamide]	> 1000	> 1000
< 30	> 1000	> 1000	> 1000	> 1000	< 30	[2H]C([2H])([2H])NC(=O)c1cnc(Nc2cc(C)nc(C)n2)cc1Nc1cccc2c1N(C)Cc1nn(C)c(=O)n1-2 [Compound 12, 4-((2,5-dimethyl-1-oxo-1,2,4,5-tetrahydro-[1,2,4]triazolo[4,3-a]quinoxalin-6-yl)amino)-6-((2,6-dimethylpyrimidin-4-yl)amino)-N-(methyl-d3)nicotinamide]	> 1000	> 1000
30 to 300	> 1000	> 1000	> 1000	> 1000	< 30	[2H]C([2H])([2H])NC(=O)c1cnc(Nc2ccc(F)cn2)cc1Nc1cccc2c1N(C)Cc1nnnn1-2 [Compound 10, 6-((5-fluoropyridin-2-yl)amino)-N-(methyl-d3)-4-((5-methyl-4,5-dihydrotetrazolo[1,5-a]quinoxalin-6-yl)amino)nicotinamide]	> 1000	> 1000
< 30	> 1000	> 1000	> 1000	> 1000	< 30	[2H]C([2H])([2H])NC(=O)c1cnc(NC(=O)C2CC2)cc1Nc1cccc2c1N(C)Cc1nn(C)c(=O)n1-2 [Compound 8, 6-(cyclopropanecarboxamido)-4-((2,5-dimethyl-1-oxo-1,2,4,5-tetrahydro-[1,2,4]triazolo[4,3-a]quinoxalin-6-yl)amino)-N-(methyl-d3)nicotinamide]	> 1000	300 to 1000
300 to 1000	> 1000	> 1000	> 1000	> 1000	30 to 300	CNC(=O)c1cnc(Nc2ccc(F)cn2)cc1Nc1cccc2c1OCCn1nnnc1-2 [Compound 15, 4-((5,6-dihydrobenzo[f]tetrazolo[1,5-d][1,4]oxazepin-8-yl)amino)-6-((5-fluoropyridin-2-yl)amino)-N-methylnicotinamide]	–	–
